In patent US9266832B2, “Compounds for the treatment of neurodegenerative diseases” (Katholieke Universiteit Levun, priority 2010, dated 2016):
pEC50: −log10 of the molar value.

These molecules were tested on M17-TAU P301L cells (assay: Tau-induced toxicity experiment: LDH leakage of retinoic acid incubated M17-TAU P301L cells). Details: Homo sapiens, Neuroblastoma cell, 168 h; reduction of LDH activity of retinoic acid incubated M17-TAU P301L neuroblastoma cells, 7 days.
Type: cell-based
Excerpt: A TAU expression plasmid was constructed by sub-cloning the cDNA of human TAU-P301L (encoding for TAU with proline 301 substituted by a leucine residue) into mammalian expression vector pcDNA3.1 resulting in plasmid pcDNA3.1-TAU P301L. Plasmids pcDNA3.1 and pcDNA3.1-TAU P301L were transfected to human neuroblastoma cells ([…]; ATCC No. CRL-2267) and independent clonal lines with the plasmids stably integrated into the genome were selected. […] Expression of the TAU P301L genes in the cell lines was confirmed by Western analysis.
In degenerated or dead cells lactate dehydrogenase (LDH) is leaked out of the cells into the extracellular environment due to a loss of plasma-membrane integrity. This principle was used to determine cytotoxicity by quantifying the level of leaked LDH into the growth medium.
The detailed method for determining TAU cytotoxicity was as follows: From appropriate precultures of M17-3.1 and M17-TAU(P301L) cells were seeded at 2500 cells/cm2 in Optimem Reduced Serum without phenol red (Gibco, Cat. 31985-047) supplemented with 1% fetal calf serum, 1 mM sodium pyruvate, 1× non-essential amino acids, 500 μg/ml G418 0.5× antibiotic/antimycotic. After 3 h of incubation at 37° C./5% CO2 1 volume of Optimem Reduced Serum (same as described above; except without fetal calf serum) supplemented with 2.5 μM retinoic acid (RA) was added. The cells were further incubated for 7 days. Subsequently, LDH activity was determined using Promega Cytotox 96 Non-Radioactive cytotoxicity assay, (Cat. G1780) according the supplier's instructions.
The M17-TAU P301L cell line made it possible to assess the ability of novel compounds to counteract TAU cytotoxicity. […] These measurements were used to calculate EC50 values of table 2.

| Compound | pEC50 |
| --- | --- |
| O=C(NCCc1c[nH]c2ccc(Cl)cc12)c1ccc(Nc2ccccc2)cc1 [Cpd092, N-(2-(5-chloro-1H-indol-3-yl)ethyl)-4-(phenylamino)benzamide] | 7.12 |
| Cc1cccc(Cc2ccc(C(=O)NCCc3c[nH]c4ccc(Cl)cc34)cc2)c1 [Cpd036, N-(2-(5-chloro-1H-indol-3-yl)ethyl)-4-(3-methylbenzyl)benzamide] | 7.40 |
| O=C(NCCc1c[nH]c2ccc(Cl)cc12)c1ccc(Cc2ccccc2)cc1 [Cpd015, 4-benzyl-N-(2-(5-chloro-1H-indol-3-yl)ethyl)benzamide] | 6.81 |
| O=C(NCCc1c[nH]c2ccc(Cl)cc12)c1ccc(CNCC2CCCCC2)cc1 [Cpd018, N-(2-(5-chloro-1H-indol-3-yl)ethyl)-4-((cyclohexylmethylamino)methyl)benzamide] | 6.77 |
| Cc1ccc(Cc2ccc(C(=O)NCCc3c[nH]c4ccc(Cl)cc34)cc2)cc1 [Cpd033, N-(2-(5-chloro-1H-indol-3-yl)ethyl)-4-(4-methylbenzyl)benzamide] | 7.51 |
| O=C(NCCc1c[nH]c2ccc(Cl)cc12)c1ccc(Cc2cc(F)cc(F)c2)cc1 [Cpd067, N-(2-(5-chloro-1H-indol-3-yl)ethyl)-4-(3,5-difluorobenzyl)benzamide] | 6.95 |
| O=C(NCCc1c[nH]c2ccc(Cl)cc12)c1ccc(CNCc2cccs2)cc1 [Cpd026, N-(2-(5-chloro-1H-indol-3-yl)ethyl)-4-((thiophen-2-ylmethylamino)methyl)benzamide] | 7.08 |
